A short description of data set [1]: Stability of trans-cyclooctene derivatives in PBS. As to conditions: PBS buffer.
Protocol: 10 μL of a solution of the specific trans-cyclooctene derivative in dioxane (25 mM) was diluted with PBS buffer (3 mL), and this solution was stored at 20° C. in the dark.
The fate of the TCO compound was monitored by HPLC-MS analysis, and an estimation of the half-life time was made based on the release of the model prodrug.
Data set [2] is described as follows: Reactivity of trans-cyclooctene derivatives: competition experiment. As to conditions: reference trans-cyclooct-4-ene-1-ol (axial isomer). Here is the method:
A competition experiment was performed to determine the reactivity ratio of a specific trans-cyclooctene derivative and trans-cyclooct-4-ene-1-ol (axial isomer) (that was chosen as the reference), in the inverse-electron demand Diels-Alder reaction with bis(2-pyridyl)-1,2,4,5-tetrazine.
This mixture was diluted with water (0.45 mL). Subsequently, a solution of bis(2-pyridyl)-1,2,4,5-tetrazine (6.25×10^−8 mol) in a mixture of acetonitrile (0.05 mL) and water (0.45 mL) was slowly added while stirring vigorously. After addition, the mixture was stirred for an additional 5 min. The conversion of both trans-cyclooctene derivatives was determined by HPLC-MS/PDA analysis, and from these conversions, the reactivity ratio (R=k2,TCO/k2,Ref) of the specific trans-cyclooctene derivative was calculated using the mathematical procedure from Ingold and Shaw (J. Chem. Soc., 1927, 2918-2926).

Molecules are shown by their SMILES. A value given as a limit tells only on which side of the number the result lay.

What is called half-life is the time needed for the level to fall by half in the phase considered. In data set [1], `OC1CC/C=C/CCC1` (stereo not drawn) [axial isomer, trans-cyclooct-4-ene-1-ol, reference compound] had a half-life at 83 µM above 72 h. For the same molecule, in data set [2], the “reactivity ratio** (R = k2,TCO/k2,Ref)” value is 1.

The values are drawn from patent publication US20160151505A1 (KONINKLIJKE PHILIPS N.V., priority 2011, published 2016).
